Patent publication US9132141B2 (priority 2012, dated 2015)

Tested on: non-adapted human Wuhan H3N2 strain
Format: in vivo
Conditions: cotton rats

## CCCCCC/C=C\CCCCCCCCCC(=O)N[C@H]1[C@H](OC[C@H]2O[C@H](OP(=O)(O)O)[C@H](NC(=O)CC(=O)CCCCCCCCCCC)[C@@H](OCCCCCCCCCC)[C@@H]2O)O[C@H](COC)[C@@H](OP(=O)(O)O)[C@@H]1OCC[C@@H](CCCCCCC)OC [eritoran, α-D-Glucopyranose, 3-O-decyl-2-deoxy-6-O-[2-deoxy-3-O-[(3R)-3-methoxydecyl)-6-O-methyl-2-[[(-11Z)-1-oxo-11-octadecenyl)amino]-4-O-phosphono-β-D-glucopyranosyl]-2-[(1,3-dioxotetradecyl)amino]-1-(dihydrogen phosphate)]
  lung expression of IL-6 and IL-10: decreased lung expression of IL-6 and IL-10
